Test results from ChEMBL document CHEMBL1129097, “1-benzyl-3-thioaryl-2-carboxyindoles as potent non-peptide endothelin antagonists” (Bioorg Med Chem Lett, 1996).

Columns and labels:
[1] = target: T1, Endothelin receptor type B (Homo sapiens, UniProt P24530); assay: Affinity for human endothelin B receptor expressed in CHO-K1 cells.; format: cell-based
T1 sequence (P24530 whole entry): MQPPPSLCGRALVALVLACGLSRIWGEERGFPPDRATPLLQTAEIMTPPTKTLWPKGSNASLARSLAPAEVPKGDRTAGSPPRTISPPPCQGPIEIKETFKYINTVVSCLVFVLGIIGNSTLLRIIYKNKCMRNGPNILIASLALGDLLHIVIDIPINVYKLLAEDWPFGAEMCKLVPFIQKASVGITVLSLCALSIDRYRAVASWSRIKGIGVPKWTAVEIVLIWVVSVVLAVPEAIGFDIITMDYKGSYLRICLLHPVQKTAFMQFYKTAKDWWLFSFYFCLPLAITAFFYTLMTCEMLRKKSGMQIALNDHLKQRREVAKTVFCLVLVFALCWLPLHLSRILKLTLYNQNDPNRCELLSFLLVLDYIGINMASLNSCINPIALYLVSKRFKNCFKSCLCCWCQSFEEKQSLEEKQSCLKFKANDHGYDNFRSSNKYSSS

[2] = target: T2, Endothelin-1 receptor (Homo sapiens, UniProt P25101); assay: Affinity for human endothelin A receptor expressed in Ltk cells.; format: cell-based
T2 sequence (P25101 whole entry): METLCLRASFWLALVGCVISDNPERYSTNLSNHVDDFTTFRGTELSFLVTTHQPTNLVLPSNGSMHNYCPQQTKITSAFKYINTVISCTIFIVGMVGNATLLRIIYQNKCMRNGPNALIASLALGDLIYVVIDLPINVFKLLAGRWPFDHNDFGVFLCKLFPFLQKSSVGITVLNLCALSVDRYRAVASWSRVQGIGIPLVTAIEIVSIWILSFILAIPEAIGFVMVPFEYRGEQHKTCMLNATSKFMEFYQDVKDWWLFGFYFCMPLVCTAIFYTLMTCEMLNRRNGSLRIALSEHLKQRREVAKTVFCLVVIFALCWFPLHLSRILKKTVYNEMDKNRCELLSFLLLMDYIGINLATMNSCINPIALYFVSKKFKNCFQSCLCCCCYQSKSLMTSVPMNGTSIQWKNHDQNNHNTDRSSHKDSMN

[3] = target: T1, Endothelin receptor type B; assay: Inhibition of sarafotoxin-6c stimulated vasoconstriction in rabbit pulmonary artery.; format: functional, Oryctolagus cuniculus; details: target entry is the homologue from another species; read-out: pA2 (converted)
[4] = target: T3, Endothelin receptor, ET-A/ET-B (Homo sapiens, UniProt P24530+P25101); assay: In vitro inhibition of ET-1 stimulated vasoconstriction in rabbit femoral artery.; format: functional, tissue-based, Oryctolagus cuniculus; details: target entry is the homologue from another species
T3 sequence (P24530 whole entry): T1 sequence (P24530 whole entry)
T3 sequence (P25101 whole entry): T2 sequence (P25101 whole entry)

Row | IC50 [1] | IC50 [2] | SMILES | Kb [3] | pA2 [4]
1 | 760 nM | – | COc1cccc(Sc2c(C(=O)O)n(Cc3ccc4c(c3)OCO4)c3cc4c(cc23)OCO4)c1 | – | –
2 | – | 86 nM | COc1cccc(Sc2c(C(=O)O)n(Cc3ccc4c(c3)OCO4)c3ccccc23)c1 | – | –
3 | 1600 nM | 20000 nM | COc1cccc(Sc2c(C(=O)O)n(Cc3ccc4c(c3)OCO4)c3cc(OCc4ccccc4)c(OC)cc23)c1 | – | –
4 | 15000 nM | – | COc1cccc(Sc2c(C(=O)O)n(Cc3ccccc3)c3ccccc23)c1 | – | –

Second part, the molecule before the results:

Row | SMILES | IC50 [1] | IC50 [2] | Kb [3] | pA2 [4]
5 | CC(C)Oc1c(C(=O)O)sc2ccc(OCc3ccccc3)cc12 | > 100000 nM | 8800 nM | – | –
6 | COc1cccc(Sc2c(C(=O)O)sc3ccccc23)c1 | > 25000 nM | – | – | –
7 | COc1cccc(Sc2c(C(=O)O)n(Cc3ccccc3)c3cc(OC)c(OC)cc23)c1 | 870 nM | 160 nM | – | –
8 | COc1cccc(Sc2c(C(=O)O)n(Cc3cc(OC)c4c(c3)OCO4)c3cc4c(cc23)OCO4)c1 | 29000 nM | – | – | –
9 | O=C(O)c1c(Sc2ccc3c(c2)OCO3)c2cc3c(cc2n1Cc1ccc2c(c1)OCO2)OCO3 | 420 nM | 100 nM | – | –
10 | COc1ccc(Sc2c(C(=O)O)n(Cc3ccc4c(c3)OCO4)c3cc4c(cc23)OCO4)cc1OC | – | 41 nM | 631 nM | 6.3
11 | COc1cc2c(Sc3ccc4c(c3)OCO4)c(C(=O)O)n(Cc3ccc4c(c3)OCO4)c2cc1OCc1ccccc1 | 490 nM | 620 nM | – | –
12 | COc1cccc(Sc2c(C(=O)O)oc3ccccc23)c1 | > 25000 nM | – | – | –
13 | COc1cc2c(Sc3cc(OC)c(OC)c(OC)c3)c(C(=O)O)n(Cc3ccc4c(c3)OCO4)c2cc1OCc1ccccc1 | > 2500 nM | > 2500 nM | – | –
